Patent US12180252B2, “Peptide derived from PEP27 peptide and uses thereof” (priority 2021, dated 2024)
Like-named read-outs stand apart in the source and are kept apart here. Where a SMILES comes first, the peptide text is derived from it.

Experiments:
B. subtilis KCTC1998 = type: cell-based, Bacillus subtilis; conditions: KCTC1998, 18 h
Experimental: (§1) In order to evaluate the antimicrobial activity of the peptides prepared by the method of above 1, a minimal inhibitory concentration (MIC) value as the minimum concentration of a peptide, in which cells are not divided, was measured.
(§2) Specifically, the strains shown in Table 3 below were purchased, cultured in a medium having a constitutional composition suitable for each strain to a mid-log phase, and then diluted to a concentration of 2×10^4 cells/100 μl to prepare the product on a micro-titration plate (Nunc, USA). Then, PEP27, PEP27-1, PEP27-2 or PEP27-5 peptide synthesized in the above 1 was added to each well by serial dilution ½ times, followed by incubation at 37° C. for 18 hours.

L. monocytogens KCTC3710 = type: cell-based, Listeria monocytogenes; conditions: KCTC3710, 18 h
Experimental: as §1, §2

E. coli ATCC25922 = type: cell-based, Escherichia coli; conditions: ATCC25922, 18 h
Experimental: as §1, §2

E. coli ATCC27325 = type: cell-based, Escherichia coli; conditions: ATCC27325, 18 h
Experimental: as §1, §2

E. coli CCARM1229 = type: cell-based, Escherichia coli; conditions: E. coli CCARM1229, antibiotics-tolerant; 37° C., 18 hours
Experimental: as §1, §2

E. coli CCARM1238 = type: cell-based, Escherichia coli; conditions: E. coli CCARM1238, antibiotics-tolerant; 37° C., 18 hours
Experimental: as §1, §2

P. aeruginosa 4007 = assay: microbe, parasite or virus in culture; conditions: 4007, 18 h
Experimental: as §1, §2
(§3) Specifically, subject strains were prepared by the method of above 2, and were treated with the antibiotics, that is, meropenem, ceftazidime, ceftriaxone or vancomycin, respectively, followed by determining MICs of the antibiotics.

P. aeruginosa 4891 = assay: microbe, parasite or virus in culture; conditions: 4891, 18 h
Experimental: as §1, §2, §3

P. aeruginosa ATCC15692 = assay: microbe, parasite or virus in culture; conditions: ATCC15692, 18 h
Experimental: as §1, §2, §3

P. aeruginosa ATCC27853 = assay: microbe, parasite or virus in culture; conditions: ATCC27853, 18 h
Experimental: as §1, §2, §3

S. aureus ATCC25923 = assay: microbe, parasite or virus in culture; conditions: ATCC25923, 18 h
Experimental: as §1, §2, §3

S. aureus ATCC29213 = assay: microbe, parasite or virus in culture; conditions: ATCC29213, 18 h
Experimental: as §1, §2, §3

S. aureus CCARM3089 = assay: microbe, parasite or virus in culture; conditions: S. aureus CCARM3089, antibiotics-tolerant; 37° C., 18 hours
Experimental: as §1, §2, §3

S. aureus CCARM3090 = assay: microbe, parasite or virus in culture; conditions: S. aureus CCARM3090, antibiotics-tolerant; 37° C., 18 hours
Experimental: as §1, §2, §3

S. aureus CCARM3518 = assay: microbe, parasite or virus in culture; conditions: S. aureus CCARM3518, antibiotics-tolerant; 37° C., 18 hours
Experimental: as §1, §2, §3

S. aureus MW2 = assay: microbe, parasite or virus in culture; conditions: S. aureus MW2, antibiotics-tolerant; 37° C., 18 hours
Experimental: as §1, §2, §3

S. aureus USA300 = assay: microbe, parasite or virus in culture; conditions: S. aureus USA300, antibiotics-tolerant; 37° C., 18 hours
Experimental: as §1, §2, §3

[1] = test system: Sa. typhimurium CCARM8007; type: cell-based, Salmonella typhimurium; conditions: Sa. typhimurium CCARM8007, antibiotics-tolerant; 37° C., 18 hours
Experimental: as §1, §2

[2] = test system: Sa. typhimurium CCARM8009; type: cell-based, Salmonella typhimurium; conditions: Sa. typhimurium CCARM8009, antibiotics-tolerant; 37° C., 18 hours
Experimental: as §1, §2

Sa. typhimurium KCTC1926 = type: cell-based, Salmonella typhimurium; conditions: KCTC1926, 18 h
Experimental: as §1, §2

[3] = test system: red blood cells of a rat (Balb/c); conditions: 37° C., 1 hour
Experimental: In order to compare the cytotoxicity of the peptides prepared by the method of above 1, erythrocyte hemolytic activity of each of the synthesized peptides was measured.
Specifically, red blood cells of a rat (Balb/c, 6 weeks old, female) were diluted with PBS (pH 7.0) to a concentration of 8%, and PEP27, PEP27-1, PEP27-2 and PEP27-5 peptides were used for treatment of the cells at concentrations of 3.13, 6.25, 12.5, 25.01 50.0 and 100.0 μM/well, respectively, followed by reaction at 37° C. for 1 hour. Then, an amount of hemoglobin contained in the supernatant obtained by centrifugation at 1,000×g was determined by measuring the absorbance at a wavelength of 414 nm. As a control which is a standard for the degree of cell destruction, the absorbance of the obtained supernatant was measured after treatment using 1% Triton X-100 (Sigma, USA) and reaction at 37° C. for 1 hour. With reference to 100% erythrocytes hemolysis activity, hemolysis of each peptide was calculated from the measured absorbance using Equation 1 below. Erythrocyte destruction ability (%)=(Absorbance A−Absorbance B)/(Absorbance C−Absorbance B)×100 [Equation 1]
(wherein, absorbance A represents the absorbance of a reaction solution treated with each peptide measured at a wavelength of 414 nm; absorbance B represents the absorbance of a reaction solution treated with PBS measured at a wavelength of 414 nm; and absorbance C represents the absorbance of a reaction solution treated with 1% Triton X-100 measured at a wavelength of 414 nm).

MTT cytotoxicity = type: cell-based, human; conditions: human; 100 μM, 24 h, MTT, HaCaT and MCF-7 cells; read-out: cell viability
Experimental: Specifically, Thiazolyl blue tetrazolium bromide (MTT, Merck KGaA) was used to determine the cytotoxicity of PEP27 and its analogs against HaCaT (human keratinocyte […], n=4 per condition) and MCF-7 (human breast adenocarcinoma, n=3 per condition) cells. The cells were cultured in Dulbecco's modified Eagle's medium (DMEM) supplemented with 10 heat-inactivated fetal bovine serum (FBS, Gibco, Grand Island, NY, USA) and 1% penicillin-streptomycin (Gibco) at a density of 2×10^4 cells/well (96-well plate). Peptides were then added at various concentrations and incubated for 24 h at 37° C., after which MTT (final concentration, 0.5 mg/mL) was added to each well and incubated for 4 h. The formazan product was solubilized in DMSO, and the absorbance at 570 nm was measured to […] cytotoxicity. Cells treated with 0.1% Triton X-100 were used as the 100% cytotoxic control sample.

SMILES: CSCC[C@H](N)C(=O)N[C@@H](Cc1c[nH]c2ccccc12)C(=O)N[C@@H](CCCCN)C(=O)N[C@@H](Cc1c[nH]c2ccccc12)C(=O)N[C@@H](Cc1ccccc1)C(=O)N[C@@H](Cc1c[nH]cn1)C(=O)N[C@@H](CC(N)=O)C(=O)N[C@H](C(=O)N[C@@H](CC(C)C)C(=O)N[C@@H](CO)C(=O)N[C@@H](CO)C(=O)NCC(=O)N[C@@H](CCC(N)=O)C(=O)N[C@@H](CC(C)C)C(=O)N[C@@H](CC(C)C)C(=O)N[C@@H](C)C(=O)N[C@@H](CC(=O)O)C(=O)N[C@@H](CCCCN)C(=O)N[C@@H](Cc1c[nH]c2ccccc12)C(=O)N[C@@H](Cc1c[nH]c2ccccc12)C(=O)N[C@@H](C)C(=O)N[C@@H](Cc1c[nH]c2ccccc12)C(=O)N[C@@H](Cc1c[nH]c2ccccc12)C(=O)N[C@@H](Cc1ccc(O)cc1)C(=O)N[C@@H](CC(N)=O)C(=O)N[C@@H](Cc1c[nH]c2ccccc12)C(=O)N[C@@H](Cc1c[nH]c2ccccc12)C(N)=O)C(C)C [PEP27-5] (H-MWKWFHNVLSSGQLLADKWWAWWYNWW-NH2)
- Minimal inhibitory concentration (B. subtilis KCTC1998): >64 µM
- Minimal inhibitory concentration (L. monocytogens KCTC3710): >64 µM
- Minimal inhibitory concentration (E. coli ATCC25922): >64 µM
- Minimal inhibitory concentration (E. coli ATCC27325): >64 µM
- Minimal inhibitory concentration (E. coli CCARM1229): >64 µM
- Minimal inhibitory concentration (E. coli CCARM1238): >64 µM
- Minimal inhibitory concentration (P. aeruginosa 4007): >64 µM
- Minimal inhibitory concentration (P. aeruginosa 4891): >64 µM
- Minimal inhibitory concentration (P. aeruginosa ATCC15692): >64 µM
- Minimal inhibitory concentration (P. aeruginosa ATCC27853): >64 µM
- Minimal inhibitory concentration (S. aureus ATCC25923): >64 µM
- Minimal inhibitory concentration (S. aureus ATCC29213): >64 µM
- Minimal inhibitory concentration (S. aureus CCARM3089): >64 µM
- Minimal inhibitory concentration (S. aureus CCARM3090): >64 µM
- Minimal inhibitory concentration (S. aureus CCARM3518): >64 µM
- Minimal inhibitory concentration (S. aureus MW2): >64 µM
- Minimal inhibitory concentration (S. aureus USA300): >64 µM
- Minimal inhibitory concentration [1]: >64 µM
- Minimal inhibitory concentration [2]: >64 µM
- Minimal inhibitory concentration (Sa. typhimurium KCTC1926): >64 µM
- Erythrocyte destruction ability ([3]; Peptide concentration 3.13 μM): 0%
- Erythrocyte destruction ability ([3]; Peptide concentration 6.25 μM): 0%
- Erythrocyte destruction ability ([3]; Peptide concentration 12.5 μM): 0%
- Erythrocyte destruction ability ([3]; Peptide concentration 25 μM): 0%
- Erythrocyte destruction ability ([3]; Peptide concentration 50 μM): 2.34%
- Erythrocyte destruction ability ([3]; Peptide concentration 100 μM, 100% = 1% Triton X-100): 3.25%
- viability at 24 h, 100 µM (MTT cytotoxicity): 100%
